Assay results from patent publication US11111249B2, “Heteroaryl-pyrazole derivative, and preparation method therefor and medical application thereof” (Jiangsu Hengrui Medicine Co., Ltd., priority 2017, dated 2021).

Experiments:
CYP3A4 = target: T1, CYP3A4 (Homo sapiens, UniProt P08684); test: Inhibition of the midazolam metabolic site on human liver microsome CYP3A4; format: in vitro ADME; settings: human liver microsomes, midazolam substrate, 30 minutes
T1 construct: Human liver microsomes (Corning Gentest); tissue Corning Gentest; host or cells: human liver microsomes
T1 sequence (P08684 whole entry): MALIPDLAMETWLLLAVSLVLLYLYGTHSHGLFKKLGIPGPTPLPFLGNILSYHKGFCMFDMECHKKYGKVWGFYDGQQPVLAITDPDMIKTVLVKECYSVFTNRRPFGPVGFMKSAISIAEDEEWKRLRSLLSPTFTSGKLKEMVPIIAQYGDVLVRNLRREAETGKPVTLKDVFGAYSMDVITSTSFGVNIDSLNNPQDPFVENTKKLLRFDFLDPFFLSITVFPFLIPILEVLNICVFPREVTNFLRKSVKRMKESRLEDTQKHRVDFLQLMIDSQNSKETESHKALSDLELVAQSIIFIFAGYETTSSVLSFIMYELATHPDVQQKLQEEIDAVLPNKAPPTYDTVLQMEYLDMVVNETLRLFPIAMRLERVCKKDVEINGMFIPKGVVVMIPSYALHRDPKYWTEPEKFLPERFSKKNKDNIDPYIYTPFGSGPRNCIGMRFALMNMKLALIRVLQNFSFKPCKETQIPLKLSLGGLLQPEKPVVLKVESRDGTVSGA
Description: The enzymatic activity of the compound of the present application against the Midazolam metabolite site on human liver microsome CYP3A4 was determined by the following experimental method:
CYP probe substrate (15 μM Midazolam, SIGMA UC429) and positive control inhibitor (Ketoconazole, SIGMA K1003).
100 mM PBS buffer was configured, and 2.5 mg/mL microsome solution and 5 mM NADPH solution were prepared with this buffer, and the 5× concentration compound working solution was diluted with PBS (150, 50, 15, 5, 1.5, 0.15, 0.015, 0 μM). The 5× concentration of Ketoconazole working solution (150, 50, 15, 5, 1.5, 0.15, 0.015, 0 μM) was diluted with PBS. Midazolam working solution was diluted to a concentration of 15 μM with PBS.
20 μL each of 2.5 mg/mL microsome solution, 15 μM Midazolam working solution, MgCl2 solution and compound working solution (150, 50, 15, 5, 1.5, 0.15, 0.015, 0 μM, each concentration was setted differently reaction system) were taken and mixed evenly. The compound was replaced with the same concentration of Ketoconazole at the positive control group. At the same time, 5 mM NADPH solution was pre-incubated for 5 minutes at 37° C. After 5 minutes, 20 μL NADPH were added into the wells, and the reaction was started and incubated for 30 minutes. All samples were incubated for two samples. […]

hERG potassium channels = target: T2, hERG potassium channels (Homo sapiens, UniProt Q12809); test: Blocking effect on hERG potassium current, automatic patch-clamp, HEK293-hERG stable cell line; format: cell-based
T2 construct: expressed in transfected cells
T2 sequence (Q12809 whole entry): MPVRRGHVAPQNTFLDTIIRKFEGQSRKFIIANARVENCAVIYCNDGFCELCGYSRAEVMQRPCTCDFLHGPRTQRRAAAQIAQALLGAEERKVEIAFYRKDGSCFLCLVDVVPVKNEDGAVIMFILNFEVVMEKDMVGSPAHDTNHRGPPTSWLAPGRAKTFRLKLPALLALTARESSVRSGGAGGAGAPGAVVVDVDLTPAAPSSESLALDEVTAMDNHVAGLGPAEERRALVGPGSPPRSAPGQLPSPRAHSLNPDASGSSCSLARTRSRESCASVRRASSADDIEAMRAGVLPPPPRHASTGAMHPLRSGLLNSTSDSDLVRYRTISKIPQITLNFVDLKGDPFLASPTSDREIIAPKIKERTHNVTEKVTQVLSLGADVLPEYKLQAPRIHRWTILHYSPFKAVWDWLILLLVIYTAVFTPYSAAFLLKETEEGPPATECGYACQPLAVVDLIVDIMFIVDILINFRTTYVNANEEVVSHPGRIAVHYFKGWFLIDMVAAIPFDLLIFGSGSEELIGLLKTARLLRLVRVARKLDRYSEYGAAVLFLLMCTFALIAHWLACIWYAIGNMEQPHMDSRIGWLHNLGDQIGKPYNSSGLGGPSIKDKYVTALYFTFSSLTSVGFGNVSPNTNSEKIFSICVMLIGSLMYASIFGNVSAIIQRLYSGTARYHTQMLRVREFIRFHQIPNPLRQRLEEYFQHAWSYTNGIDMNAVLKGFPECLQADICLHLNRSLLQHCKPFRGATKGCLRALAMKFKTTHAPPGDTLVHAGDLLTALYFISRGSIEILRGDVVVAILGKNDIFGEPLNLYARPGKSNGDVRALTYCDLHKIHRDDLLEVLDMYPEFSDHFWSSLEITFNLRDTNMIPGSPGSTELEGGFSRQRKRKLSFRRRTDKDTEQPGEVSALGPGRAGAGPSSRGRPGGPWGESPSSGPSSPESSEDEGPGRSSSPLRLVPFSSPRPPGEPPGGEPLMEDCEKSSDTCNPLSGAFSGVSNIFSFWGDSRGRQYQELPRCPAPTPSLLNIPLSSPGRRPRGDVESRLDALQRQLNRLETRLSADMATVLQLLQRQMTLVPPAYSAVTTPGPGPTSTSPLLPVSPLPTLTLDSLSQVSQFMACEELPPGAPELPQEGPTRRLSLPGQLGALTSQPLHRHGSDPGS
Description: The blocking effect of the compound of the present application on hERG potassium current was tested using an automatic patch-clamp on a stable cell line transfected with hERG potassium channels.
The HEK293-hERG stable cell line was subcultured at a density of 1:4 in MEM/EBSS medium (10% FBS, 400 μg/mL G418, 1% MEM non-essential amino acid solution (100×), 1% sodium pyruvate solution) and cultured within 48-72 hours for automatic patch-clamp experiments. On the day of the experiment, the cells were digested with 0.25% trypsin, collected by centrifugation and resuspended with extracellular fluid (140 mM NaCl, 4 mM KCl, 1 mM MgCl2, 2 mM CaCl2, 5 mM MD glucose monohydrate, 10 mM Hepes, pH 7.4, 298 mOsmol) to give a cell suspension. […] The currents at each concentration of the compound and the blank control current were analyzed by HEAK Patchmaster, HEAK EPC 10 patch clamp amplifiers (Nanion) and Pathlinersoftware and data analysis software provided by Pathcontrol HTsoftware.
Blocking effect of the compound of the present application on hERG potassium current was determined by the above experimental method, and the IC50 values were as shown in Table 5.

Row | Structure (SMILES) | IC50 (CYP3A4) [µM] | IC50 (hERG potassium channels) [µM]
1 | CCCCOc1nc(N)c2[nH]nc(Cc3ccc(CN4CCCC4)cc3)c2n1 [Embodiment 1, 5-Butoxy-3-(4-(pyrrolidin-1-ylmethyl)benzyl)-1H-pyrazolo[4,3-d]pyrimidin-7-amine] | 16.7 | > 30
2 | CCCCOc1nc(N)c2[nH]cc(Cc3ccc(CN4CCCC4)cc3)c2n1 [Embodiment 21 of WO2016023511] | 1.02 | 3.6
